This is an account of results in patent US4150049A, “Esters of aromatic sulfonic acids” (The Government of the United States, priority 1977, dated 1979).

A word on the Ki: it is the equilibrium dissociation constant of an inhibitor or competing ligand from its target. In general, Kd refers to the free concentration of one partner at which half of the binding sites on the other are occupied at equilibrium, for simple one-to-one binding.

The structures appear in SMILES notation.

The target in experiment [1] is T1, Thrombin (bovine) (Bos taurus, UniProt P00735).
T1 construct: made in house
As to the kind of experiment: Dixon plot competitive inhibition of hydrolysis of benzyloxy-lysine-nitrophenyl ester by bovine thrombin. Type of experiment: biochemical. On the procedure: (§1) In accordance with the present invention, nitrophenyl m- and p-amidinophenylmethanesulfonate were prepared, and these compounds were examined for their properties related to inhibition and inactivation of specific enzymes. With regard to the enzymes employed, bovine β-trypsin and thrombin were chromatographically purified by known procedures. Human plasminogen was purified from Cohn fraction III and activated with streptokinase. Human plasma kallikrein was purified about 1000-fold from activated Cohn fraction IV, by affinity chromatography. Human thrombin was prepared by the method of Miller and Copeland. Bovine chymotrypsin three times crystallized was also employed, along with streptokinase.
(§2) Enzyme concentrations were determined by titration with nitrophenyl p-guanidinobenzoate in the case of trypsin, plasmin, and thrombin, whereas chymotrypsin molarity was based on weight. Kallikrein concentration is expressed in enzyme units as measured in a pH-state by esterase action on 0.02 M tos-Arg-OMe in 0.06 M KCl at pH 7.85; one unit corresponds to the hydrolysis of 1 μmole of ester per minute under these conditions.
(§3) Optical density change at 340 nm was measured with double beam operation as described above. […]

In experiment [2] the target is T2, Plasma kallikrein (human) (Homo sapiens, UniProt P03952).
T2 construct: from tissue
As to the kind of experiment: Dixon plot competitive inhibition of esterase action of human plasma kallikrein. Type of experiment: biochemical. The note with it: Dixon plots, pH 6.0; Ki (M) x 10^5; read-out: Inhibition constant Ki (M) x 10^5, Plasma kallikrein (human). The procedure: as §1, §2, §3

Experiment [3] addresses T3, Plasmin (human) (Homo sapiens, UniProt P00747).
T3 construct: from tissue; host or cells: Cohn fraction III (human plasma)
As to the kind of experiment: Dixon plot competitive inhibition of esterase action of human plasmin. Type of experiment: biochemical. To be noted: Dixon plots, pH 6.0; Ki (M) x 10^5; read-out: Inhibition constant Ki (M) x 10^5, Plasmin (human). The procedure:
as §1, §2, §3

Experiment [4] deals with T4, β-Trypsin (Bos taurus, UniProt P00760).
T4 construct: bovine β-trypsin; made in house
T4 sequence (P00760 24-246): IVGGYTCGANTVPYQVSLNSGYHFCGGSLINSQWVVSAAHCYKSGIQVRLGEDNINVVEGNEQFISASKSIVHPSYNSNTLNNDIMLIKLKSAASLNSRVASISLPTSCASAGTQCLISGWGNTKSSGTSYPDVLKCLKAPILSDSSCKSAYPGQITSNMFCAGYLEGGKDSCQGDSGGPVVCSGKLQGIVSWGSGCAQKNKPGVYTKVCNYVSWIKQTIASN
As to the kind of experiment: Dixon plot competitive inhibition of hydrolysis of benzyloxy-lysine-nitrophenyl ester by β-trypsin. To be noted: Dixon plots, pH 6.0; Ki (M) x 10^5; read-out: Inhibition constant Ki (M) x 10^5, β-Trypsin. Type of experiment: biochemical, bovine. On the procedure:
as §1, §2, §3

The target of experiment [5] is T5, α-Chymotrypsin (Bos taurus, UniProt P00766).
T5 construct: α-Chymotrypsin
As to the kind of experiment: Dixon plot competitive inhibition of hydrolysis of benzyloxy-lysine-nitrophenyl ester by α-chymotrypsin. Type of experiment: biochemical, bovine. The note with it: Dixon plots, pH 6.0; Ki (M) x 10^5; read-out: Inhibition constant Ki (M) x 10^5, α-Chymotrypsin. On the procedure: as §1, §2, §3

Experiment [6] addresses T6, Thrombin (human) (Homo sapiens, UniProt P00734).
T6 construct: made in house
As to the kind of experiment: Dixon plot competitive inhibition of hydrolysis of benzyloxy-lysine-nitrophenyl ester by human thrombin. Type of experiment: biochemical. To be noted: Dixon plots, pH 6.0; Ki (M) x 10^5; read-out: Inhibition constant Ki (M) x 10^5, Thrombin (human). On the procedure:
as §1, §2, §3

The target of experiment [7] is thrombin (Bos taurus, UniProt P00735). As to the kind of experiment: presteady state kinetics of nitrophenol production by thrombin. Type of experiment: biochemical, bovine. On the procedure: as §1
The action of thrombin on nitrophenyl p-amidinophenylmethanesulfonate was also studied in 0.05 M sodium veronal buffer, pH 7.4 (with 0.02 M Ca^2+ + at a series of reagent concentrations to determine the possible formation of an intermediate complex as a step in the inactivation process. The apparatus was the same as above and presteady state nitrophenol production was analyzed for the calculation of k2 and KS. Concentrations of the p-isomer were 0.5, 1.0, 2.0, 2.5, 3.75, and 5.0×10^-4 M. One of the progress curves is shown in FIG. 1, with this graph representing the action of thrombin (3×10^-6 M) on the p-isomer, pH 8.3, 25° C., with stoichiometric nitrophenol release accompanying inactivation. Although the full chromogeneity of nitrophenol is not reached at this pH, the final value in each case was equal to that obtained in control titrations with NPGB.

T3 sequence (P00747 581-810 limits assumed): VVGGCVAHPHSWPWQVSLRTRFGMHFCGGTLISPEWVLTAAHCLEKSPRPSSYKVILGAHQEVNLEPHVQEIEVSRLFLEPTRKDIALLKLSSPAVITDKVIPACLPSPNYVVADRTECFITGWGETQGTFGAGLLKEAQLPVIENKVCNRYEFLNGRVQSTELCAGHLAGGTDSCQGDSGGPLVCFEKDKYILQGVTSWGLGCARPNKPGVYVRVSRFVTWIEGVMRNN
T3 sequence (P00747 97-580 limits assumed): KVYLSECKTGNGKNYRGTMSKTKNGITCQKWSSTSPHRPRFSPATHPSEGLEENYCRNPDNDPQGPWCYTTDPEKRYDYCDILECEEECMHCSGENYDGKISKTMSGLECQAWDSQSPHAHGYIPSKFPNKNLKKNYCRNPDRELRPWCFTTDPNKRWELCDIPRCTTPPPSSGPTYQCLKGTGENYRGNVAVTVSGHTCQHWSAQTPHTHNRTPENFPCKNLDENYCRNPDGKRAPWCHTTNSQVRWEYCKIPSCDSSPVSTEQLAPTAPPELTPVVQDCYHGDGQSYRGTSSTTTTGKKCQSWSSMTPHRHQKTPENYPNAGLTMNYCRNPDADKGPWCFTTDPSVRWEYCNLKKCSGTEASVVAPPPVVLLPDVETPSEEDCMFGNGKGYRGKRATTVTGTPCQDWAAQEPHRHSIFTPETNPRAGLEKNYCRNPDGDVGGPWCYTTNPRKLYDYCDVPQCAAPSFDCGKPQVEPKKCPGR
T2 sequence (P03952 391-638 limits assumed): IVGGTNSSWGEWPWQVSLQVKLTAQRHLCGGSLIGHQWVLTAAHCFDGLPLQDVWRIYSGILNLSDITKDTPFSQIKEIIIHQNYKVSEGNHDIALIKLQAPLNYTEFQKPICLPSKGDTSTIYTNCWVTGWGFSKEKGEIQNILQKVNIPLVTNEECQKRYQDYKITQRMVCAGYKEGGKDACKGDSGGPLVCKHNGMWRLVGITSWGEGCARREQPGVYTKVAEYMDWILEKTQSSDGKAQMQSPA
T2 sequence (P03952 20-390 limits assumed): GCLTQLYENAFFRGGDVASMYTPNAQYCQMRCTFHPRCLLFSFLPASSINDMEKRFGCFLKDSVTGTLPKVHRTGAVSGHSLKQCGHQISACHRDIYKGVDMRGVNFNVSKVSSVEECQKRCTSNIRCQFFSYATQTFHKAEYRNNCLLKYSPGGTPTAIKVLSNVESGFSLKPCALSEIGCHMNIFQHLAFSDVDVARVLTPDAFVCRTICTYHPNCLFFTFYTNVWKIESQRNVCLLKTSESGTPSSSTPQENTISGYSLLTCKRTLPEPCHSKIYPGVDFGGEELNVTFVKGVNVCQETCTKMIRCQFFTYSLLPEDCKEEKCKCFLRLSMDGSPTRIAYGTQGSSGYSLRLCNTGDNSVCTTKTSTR

In the case of `N=C(N)c1cccc(CS(=O)(=O)Oc2ccc([N+](=O)[O-])cc2)c1` [m-isomer], the inhibition constant Ki amounted to 415 µM in experiment [1]; 1.9e-05 M in experiment [2]; 4.2e-05 M in experiment [3]; 9e-06 M in experiment [4]; 1.3e-05 M in experiment [5]; 5.3e-05 M in experiment [6].
In turn, `N=C(N)c1ccc(CS(=O)(=O)Oc2ccc([N+](=O)[O-])cc2)cc1` [p-isomer] came in with a Kd in experiment [7] of 120 µM. Further, the Ki in experiment [7] is 120 µM; in experiment [2] it was 4.7e-05 M; in experiment [3] it was 0.0005 M; in experiment [4], 7e-05 M; in experiment [5], 3.6e-05 M. In addition, the kinact in experiment [7] (presteady state kinetics, pH 7.4, read-out: rate constant for inactive enzyme formation, k2 (converted)) was 0.0193 s⁻¹.
